Experimental data taken from patent publication US20110294828A1, “PROCESS FOR PREPARING A POLYMORPH OF THE CHOLINE SALT OF A PYRIMIDIN-5-YL ACETIC ACID DERIVATIVE” (BOEHRINGER INGELHEIM INTERNATIONAL GMBH, priority 2009, published 2011).
Structures can show the parent of a compound that is named as a salt.

How the values were obtained:
[1] = Dynamic vapor sorption/desorption (DVS); format: physicochemical; conditions: up to 75% relative humidity at 25° C.
Procedure: Vapor sorption/desorption was carried out using Surface Measurement Systems DVS-HT. Samples were placed into a foil insert placed on a sample pan. […] The equilibrium point of each step was reached when 0.002% of weight change was reached.

[2] = target: T1, CRTH2 (Homo sapiens, UniProt Q9Y5Y4); assay: CRTH2 antagonistic activity (statement only, no method given)
T1 sequence (Q9Y5Y4 1-395): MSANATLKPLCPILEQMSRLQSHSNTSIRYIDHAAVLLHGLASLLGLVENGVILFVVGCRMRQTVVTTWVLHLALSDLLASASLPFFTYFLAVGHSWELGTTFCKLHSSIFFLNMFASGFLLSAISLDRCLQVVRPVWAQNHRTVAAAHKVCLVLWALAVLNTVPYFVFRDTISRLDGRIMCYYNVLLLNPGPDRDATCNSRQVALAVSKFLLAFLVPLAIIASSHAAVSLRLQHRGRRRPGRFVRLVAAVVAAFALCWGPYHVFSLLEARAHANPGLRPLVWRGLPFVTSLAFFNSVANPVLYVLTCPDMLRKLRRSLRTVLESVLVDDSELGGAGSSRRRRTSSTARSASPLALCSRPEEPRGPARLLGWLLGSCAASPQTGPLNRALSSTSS

[3] = Particle size distribution (Sympatec HELOS, dry powder dispersion); format: physicochemical; parameters: particle size D90: dose or concentration left out as unconfirmed; conditions: for Particle size distribution (PSD) % <10 μM / Particle size distribution (PSD) % <50 μM / particle size D90: crystalline product as isolated, no milling; for particle size D90: the values are: particle size D90
Procedure: Determination of particle size distribution was carried out using a Sympatec HELOS System H1588 with a RODOS/M Dry Powder Dispersion System.

hygroscopicity (DVS isotherm, FIG. 3) [1]: non-hygroscopic
CRTH2 antagonistic activity [2]: excellent
Particle size distribution (PSD) % <10 μM ([3]; listed as Comp. Ex. 2): 11.57
Particle size distribution (PSD) % <50 μM ([3]; listed as Comp. Ex. 2): 60.13
particle size D90 ([3]; listed as Comp. Ex. 2): 120 µm
Particle size distribution (PSD) % <10 μM ([3]; listed as Comp. Ex. 3): 6.87
Particle size distribution (PSD) % <50 μM ([3]; listed as Comp. Ex. 3): 57.62
particle size D90 ([3]; listed as Comp. Ex. 3): 181 µm
Particle size distribution (PSD) % <10 μM ([3]; listed as Comp. Ex. 4): 3.01
Particle size distribution (PSD) % <50 μM ([3]; listed as Comp. Ex. 4): 13.62
particle size D90 ([3]; listed as Comp. Ex. 4): 38 µm
Particle size distribution (PSD) % <10 μM ([3]; listed as Ex. 1): 5.13
Particle size distribution (PSD) % <50 μM ([3]; listed as Ex. 1): 16.67
particle size D90 ([3]; listed as Ex. 1): 35.5 µm
diameter of 90% of the choline salt particles ([3]; seeding step with seeding particles of which 90% have a diameter of less than 50 μm): less than 100 μm
SMILES: CN(C)c1nc(Cc2ccc(NC(=O)c3ccc(C(F)(F)F)cc3)cc2)nc(N(C)C)c1CC(=O)O [choline salt of [4,6-bis(dimethylamino)-2-(4-{[4-(trifluoromethyl)benzoyl]amino}benzyl)pyrimidin-5-yl]acetic acid]
